ChEMBL document CHEMBL4020841, “Structure Guided Lead Generation toward Nonchiral M. tuberculosis Thymidylate Kinase Inhibitors” (J Med Chem, 2018)
Active and inactive are the calls of the source. The rule behind the calls is not given here.

Each compound was assayed on Mycobacterium tuberculosis (assay: Antimicrobial activity against Mycobacterium tuberculosis H37Ra ATCC 25177 harboring pSMT1 luciferase reporter plasmid up to 64 uM after 7 days by luminometric method).
Type: functional
Cc1cn(C2CCN(Cc3cncc4ccccc34)CC2)c(=O)[nH]c1=O was tested, and the Activity was “inactive”.
Cc1cn(C2CCN(CC3CCCCC3)CC2)c(=O)[nH]c1=O was tested, and the Activity was “inactive”.
In the case of Cc1cn(C2CN(CCc3cccc(Oc4ccccc4)c3)C2)c(=O)[nH]c1=O, the Activity is reported as “inactive”.
For Cc1cn(C2CN(Cc3cccc(Oc4ccccc4)c3)C2)c(=O)[nH]c1=O, the Activity was “inactive”.
In the case of Cc1cn(C2CCN(C(=O)c3cccc(Oc4ccccc4)c3)CC2)c(=O)[nH]c1=O, the Activity is reported as “inactive”.
In the case of Cc1cn(C2CCN(Cc3ccnc4ccccc34)CC2)c(=O)[nH]c1=O, the Activity is reported as “inactive”.
With Cc1cn(C2CCN(Cc3ccoc3)CC2)c(=O)[nH]c1=O the Activity was “inactive”.
For Cc1cn(C2CCN(Cc3cccnc3)CC2)c(=O)[nH]c1=O, the Activity was “inactive”.
With Cc1cn(C2CCN(Cc3ccco3)CC2)c(=O)[nH]c1=O the Activity was “inactive”.
With Cc1cn(C2CCN(Cc3cccc4ccccc34)CC2)c(=O)[nH]c1=O the Activity was “inactive”.
With Cc1cn(C2CCN(CCc3cccc(Oc4ccccc4)c3)CC2)c(=O)[nH]c1=O the Activity was “inactive”.
With Cc1ccc(CN2CCC(n3cc(C)c(=O)[nH]c3=O)CC2)cc1 the Activity was “inactive”.
Cc1cn(C2CCN(Cc3ccc(Oc4ccccc4)cc3)CC2)c(=O)[nH]c1=O was tested, and the Activity was “inactive”.
Cc1cn(C2CCN(Cc3ccc(N(C)C)cc3)CC2)c(=O)[nH]c1=O was tested, and the Activity was “inactive”.
In the case of Cc1cn(C2CCN(C(=O)c3ccc(Oc4ccccc4)cc3)CC2)c(=O)[nH]c1=O, the Activity is reported as “inactive”.
For Cc1cn(C2CCN(Cc3nccc4ccccc34)CC2)c(=O)[nH]c1=O, the Activity was “inactive”.
With Cc1cn(CC2CCN(Cc3cccc(Oc4ccccc4)c3)CC2)c(=O)[nH]c1=O the Activity was “inactive”.
With Cc1cn(C2CCN(Cc3cnc4ccccc4c3)CC2)c(=O)[nH]c1=O the Activity was “inactive”.
With Cc1cn(C2CCN(Cc3ccccn3)CC2)c(=O)[nH]c1=O the Activity was “inactive”.
For Cc1cn(C2CCN(Cc3ccncc3)CC2)c(=O)[nH]c1=O, the Activity was “inactive”.
In the case of Cc1cn(C2CCN(Cc3cccc(Oc4ccccc4)c3)CC2)c(=O)[nH]c1=O, the Activity is reported as “inactive”.
With Cc1cn(C2CCN(Cc3cccc(C(=O)O)n3)CC2)c(=O)[nH]c1=O the Activity was “inactive”.
For Cc1cn(C2CCN(Cc3ccc(Cl)cc3)CC2)c(=O)[nH]c1=O, the Activity was “inactive”.
Cc1cccc(CN2CCC(n3cc(C)c(=O)[nH]c3=O)CC2)c1 was tested, and the Activity was “inactive”.
For Cc1cn(CC2CCN(Cc3ccc(Oc4ccccc4)cc3)CC2)c(=O)[nH]c1=O, the Activity was “inactive”.
With Cc1cn(C2CCN(Cc3ccc(C#N)cc3)CC2)c(=O)[nH]c1=O the Activity was “inactive”.
For Cc1cn(C2CCN(Cc3cc4ccccc4o3)CC2)c(=O)[nH]c1=O, the Activity was “inactive”.
For Cc1cn(C2CCN(Cc3ccc(C(=O)O)cc3)CC2)c(=O)[nH]c1=O, the Activity was “inactive”.
With Cc1cn(C2CCN(Cc3cc4ccccc4cn3)CC2)c(=O)[nH]c1=O the Activity was “inactive”.
With Cc1cn(C2CN(Cc3ccc(Oc4ccccc4)cc3)C2)c(=O)[nH]c1=O the Activity was “inactive”.
With COc1ccc(CN2CCC(n3cc(C)c(=O)[nH]c3=O)CC2)cc1 the Activity was “inactive”.
For Cc1cn(C2CCN(Cc3ccccc3)CC2)c(=O)[nH]c1=O, the Activity was “inactive”.
With Cc1cn(C2CN(CCCc3cccc(Oc4ccccc4)c3)C2)c(=O)[nH]c1=O the Activity was “inactive”.
For Cc1cn(C2CCN(Cc3ccc4ccccc4c3)CC2)c(=O)[nH]c1=O, the Activity was “inactive”.
In the case of Cc1cn(C2CCN(Cc3cc(Oc4ccccc4)c4ccc(Cl)cc4n3)CC2)c(=O)[nH]c1=O, the Activity is reported as “inactive”.
